In patent US20260262643A1, “HERBICIDAL BENZOXAZINES” (FMC CORPORATION, priority 2022, published 2026):

Experiments:
[1] = tested on: kochia; experiment: Test A preemergence; assay type: in vivo, Bassia scoparia
Outline: (§1)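 Greenhouse pot test, 10 days. Compound (non-phytotoxic solvent, surfactant) sprayed on soil at seeding or on seedlings at one- to two-leaf stage. Visual injury rated 0–100 against untreated plants.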

[2] = tested on: soybean; experiment: Test A preemergence; assay type: in vivo, Glycine max
Outline: as §1

[3] = tested on: oat, wild; experiment: Test A preemergence; assay type: in vivo, Avena fatua
Outline: as §1

[4] = tested on: pigweed, palmer; experiment: Test A postemergence; assay type: in vivo, Amaranthus palmeri; conditions: 500 g ai/ha, postemergence, 10 days, visual injury, 0 to 100 scale (0 no effect, 100 complete control)
Outline: as §1

[5] = tested on: kochia; experiment: Test A postemergence; assay type: in vivo, Bassia scoparia; conditions: postemergence, 10 days, visual injury, 0 to 100 scale (0 no effect, 100 complete control)
Outline: as §1

[6] = tested on: goosegrass; experiment: Test A postemergence; assay type: in vivo, Eleusine indica; conditions: postemergence, 10 days, visual injury, 0 to 100 scale (0 no effect, 100 complete control)
Outline: as §1

[7] = tested on: soybean; experiment: Test A postemergence; assay type: in vivo, Glycine max; conditions: 500 g ai/ha, postemergence, 10 days, visual injury, 0 to 100 scale (0 no effect, 100 complete control)
Outline: as §1

[8] = tested on: horseweed; experiment: Test A postemergence; assay type: in vivo, Erigeron canadensis; conditions: postemergence, 10 days, visual injury, 0 to 100 scale (0 no effect, 100 complete control)
Outline: as §1

[9] = tested on: ryegrass, Italian; experiment: Test A preemergence; assay type: in vivo, Lolium multiflorum
Outline: as §1

[10] = tested on: corn; experiment: Test A preemergence; assay type: in vivo, Zea mays
Outline: as §1

[11] = tested on: rice; experiment: Test B flooded paddy test; assay type: in vivo, Oryza sativa; conditions: 250 g ai/ha, Flood, 13 days, 0 to 100 scale (0 no effect, 100 complete control)
Outline: (§2)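 Compound is introduced into paddy water covering soil by 3 cm, treating plants that have reached two leaves. Pots are kept flooded at that depth under greenhouse conditions. Assessment at 13 days gives a 0–100 visual control score.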

[12] = tested on: foxtail, giant; experiment: Test A preemergence; assay type: in vivo, Setaria faberi
Outline: as §1

[13] = tested on: blackgrass; experiment: Test A preemergence; assay type: in vivo, Alopecurus myosuroides
Outline: as §1

[14] = tested on: blackgrass; experiment: Test A postemergence; assay type: in vivo, Alopecurus myosuroides
Outline: as §1

[15] = tested on: ragweed; experiment: Test A postemergence; assay type: in vivo, Ambrosia artemisiifolia; conditions: 500 g ai/ha, postemergence, 10 days, visual injury, 0 to 100 scale (0 no effect, 100 complete control)
Outline: as §1

[16] = tested on: sedge, umbrella; experiment: Test B flooded paddy test; assay type: in vivo, Cyperus difformis; conditions: 250 g ai/ha, Flood, 13 days, 0 to 100 scale (0 no effect, 100 complete control)
Outline: as §2

[17] = tested on: barnyardgrass; experiment: Test B flooded paddy test; assay type: in vivo, Echinochloa crus-galli; conditions: 250 g ai/ha, Flood, 13 days, 0 to 100 scale (0 no effect, 100 complete control)
Outline: as §2

[18] = tested on: galium; experiment: Test A postemergence; assay type: in vivo, Galium aparine; conditions: postemergence, 10 days, visual injury, 0 to 100 scale (0 no effect, 100 complete control)
Outline: as §1

[19] = tested on: wheat; experiment: Test A preemergence; assay type: in vivo, Triticum aestivum
Outline: as §1

[20] = tested on: ragweed; experiment: Test A preemergence; assay type: in vivo, Ambrosia artemisiifolia
Outline: as §1

[21] = tested on: foxtail, giant; experiment: Test A postemergence; assay type: in vivo, Setaria faberi; conditions: postemergence, 10 days, visual injury, 0 to 100 scale (0 no effect, 100 complete control)
Outline: as §1

[22] = tested on: ryegrass, Italian; experiment: Test A postemergence; assay type: in vivo, Lolium multiflorum; conditions: 500 g ai/ha, postemergence, 10 days, visual injury, 0 to 100 scale (0 no effect, 100 complete control)
Outline: as §1

[23] = tested on: ducksalad; experiment: Test B flooded paddy test; assay type: in vivo, Heteranthera limosa; conditions: 250 g ai/ha, Flood, 13 days, 0 to 100 scale (0 no effect, 100 complete control)
Outline: as §2

[24] = tested on: pigweed, palmer; experiment: Test A preemergence; assay type: in vivo, Amaranthus palmeri
Outline: as §1

[25] = tested on: corn; experiment: Test A postemergence; assay type: in vivo, Zea mays; conditions: postemergence, 10 days, visual injury, 0 to 100 scale (0 no effect, 100 complete control)
Outline: as §1

[26] = tested on: oat, wild; experiment: Test A postemergence; assay type: in vivo, Avena fatua; conditions: 500 g ai/ha, postemergence, 10 days, visual injury, 0 to 100 scale (0 no effect, 100 complete control)
Outline: as §1

[27] = tested on: wheat; experiment: Test A postemergence; assay type: in vivo, Triticum aestivum; conditions: 500 g ai/ha, postemergence, 10 days, visual injury, 0 to 100 scale (0 no effect, 100 complete control)
Outline: as §1

[28] = tested on: goosegrass; experiment: Test A preemergence; assay type: in vivo, Eleusine indica
Outline: as §1

[29] = 125 g ai/ha, visual injury after 10 days, 0 to 100 scale, 0 is no effect, 100 is complete control
[30] = 500 g ai/ha, 0 to 100 scale (0 no effect, 100 complete control), 10 days

## Cc1ccc(-n2cnc(C3CC3)n2)cc1C(=O)N1C[C@H](C)Oc2c(Cl)cccc21 [Compound 67]
[1]; [29]
  Plant response rating, Kochia: 80
[1]; [30]
  Plant response rating, Kochia: 100
[2]; [29]
  Plant response rating, Soybean: 50
[2]; [30]
  Plant response rating, Soybean: 70
[3]; [29]
  Plant response rating, Oat, Wild: 30
[3]; [30]
  Plant response rating, Oat, Wild: 90
[4]
  Plant response rating, Pigweed, Palmer: 90
[5]; 125 g ai/ha
  Plant response rating, Kochia: 70
[5]; 500 g ai/ha
  Plant response rating, Kochia: 100
[6]; 125 g ai/ha
  Plant response rating, Goosegrass: 30
[6]; 500 g ai/ha
  Plant response rating, Goosegrass: 70
[7]
  Plant response rating, Soybean: 100
[8]; 125 g ai/ha
  Plant response rating, Horseweed: 30
[8]; 500 g ai/ha
  Plant response rating, Horseweed: 30
[9]; [29]
  Plant response rating, Ryegrass, Italian: 100
[9]; [30]
  Plant response rating, Ryegrass, Italian: 100
[10]; [29]
  Plant response rating, Corn: 40
[10]; [30]
  Plant response rating, Corn: 50
[11]
  Plant response rating, Rice: 0
[12]; [29]
  Plant response rating, Foxtail, Giant: 100
[12]; [30]
  Plant response rating, Foxtail, Giant: 100
[13]; [29]
  Plant response rating, Blackgrass: 80
[13]; [30]
  Plant response rating, Blackgrass: 90
[14]; 125 g ai/ha, postemergence, 10 days, visual injury, 0 to 100 scale (0 no effect, 100 complete control)
  Plant response rating, Blackgrass: 70
[14]; 500 g ai/ha, Postemergence, 0 to 100 scale
  Plant response rating, Blackgrass: 90
[15]
  Plant response rating, Ragweed: 70
[16]
  Plant response rating, Sedge, Umbrella: 75
[17]
  Plant response rating, Barnyardgrass: 0
[18]; 125 g ai/ha
  Plant response rating, Galium: 100
[18]; 500 g ai/ha
  Plant response rating, Galium: 100
[19]; [29]
  Plant response rating, Wheat: 10
[19]; [30]
  Plant response rating, Wheat: 30
[20]; [29]
  Plant response rating, Ragweed: 0
[20]; [30]
  Plant response rating, Ragweed: 30
[21]; 125 g ai/ha
  Plant response rating, Foxtail, Giant: 50
[21]; 500 g ai/ha
  Plant response rating, Foxtail, Giant: 90
[22]
  Plant response rating, Ryegrass, Italian: 100
[23]
  Plant response rating, Ducksalad: 30
[24]; [29]
  Plant response rating, Pigweed, Palmer: 100
[24]; [30]
  Plant response rating, Pigweed, Palmer: 100
[25]; 125 g ai/ha
  Plant response rating, Corn: 60
[25]; 500 g ai/ha
  Plant response rating, Corn: 60
[26]
  Plant response rating, Oat, Wild: 60
[27]
  Plant response rating, Wheat: 30
[28]; [29]
  Plant response rating, Goosegrass: 100
[28]; [30]
  Plant response rating, Goosegrass: 100
